Source: patent US5776944A, “7-(4-aminomethyl-3-methyloxyiminopyrroplidin-1-yl)-1-cyclopropyl-6-flu oro-4-oxo-1,4-dihydro-1,8-naphthyridine-3-carboxylic acid and the process for the preparation thereof” (LG Chemical Ltd., priority 1994, dated 1998)
Values after ≈ are worked out from the molar mass of the structure shown.

Assays:
[1] = test system: Staphylococcus epidermidis 887E; assay: In vitro antibacterial activity (MIC, agar medium dilution), Biological Example 4; assay type: cell-based; settings: 18 h, Staphylococcus epidermidis 887E, Table 31, read-out: Minimum Inhibitory Concentration: MIC
[2] = test system: Pseudomonas aeruginosa 6065Y; assay: as above; assay type: cell-based; settings: 18 h, Table 31, read-out: Minimum Inhibitory Concentration: MIC
Experimental: (§1) In order to determine the antibacterial activitiers of the E- and Z-isomner of the compound 180 which were separated in Example 203, and of 7- (4-aminomethyl-3-methyloxylminopyrrolidin-1-yl)-1-cyclopropyl-6-fluoro-4-oxo-1,4-dihydro-1,8-naphthyridine-3-carboxylic acid methanesulfonate prepared in Example 204, in vitro antibacterial activities of them were measured using agar medium dilution method. The results were as described in the following Tables 31 and 32.

[3] = test system: Seratis marsecence 1826E; assay: as above; assay type: cell-based
Experimental: as §1

[4] = test system: Pseudomonas aeruginosa 10145; assay: as above; assay type: cell-based; settings: Pseudomonas aeruginosa, 10145, 18 h, Pseudomonas aeruginosa 10145, Table 32, ratio of weight; read-out: Minimum Inhibitory Concentration: MIC
[5] = test system: Streptococcus faecalis 29212; assay: as above; assay type: cell-based; settings: Enterococcus faecalis, 29212, 18 h, Streptococcus faecalis 29212, Table 31; read-out: Minimum Inhibitory Concentration: MIC
[6] = test system: Escherichia coli TEM3 3455E; assay: as above; assay type: cell-based; settings: TEM33455E, 18 h, read-out: Minimum Inhibitory Concentration: MIC, Escherichia coli TEM3 3455E, Table 32, ratio of weight
[7] = test system: Staphylococcus aureus 241; assay: In vitro antibacterial activity (MIC, agar dilution), Biological Example 1; assay type: cell-based; settings: 18 h; Staphylococcus aureus 241, Table 25; read-out: Minimum Inhibitory Concentration
[8] = test system: Escherichia coli 851E; assay: as above; assay type: cell-based; settings: 18 h, Table 25, read-out: Minimum Inhibitory Concentration
[9] = test system: Escherichia coli TEM5 3739E; assay: microbe, parasite or virus in culture; assay type: cell-based; settings: TEM53739E, 18 h, read-out: Minimum Inhibitory Concentration
[10] = test system: Acinetobacter calcoaceticus 15473; assay: In vitro antibacterial activity (MIC, agar dilution), Biological Example 1; assay type: cell-based; settings: 18 h; Acinetobacter calcoaceticus 15473, Table 25; read-out: Minimum Inhibitory Concentration
[11] = test system: Streptococcus faecalis 29212; assay: as above; assay type: cell-based; settings: Enterococcus faecalis, 18 h; Streptococcus faecalis 29212, Table 25; read-out: Minimum Inhibitory Concentration
[12] = test system: Enterobacter cloacae 1194E; assay: microbe, parasite or virus in culture; assay type: cell-based; settings: 18 h, read-out: Minimum Inhibitory Concentration
[13] = test system: Escherichia coli TEM9 2639E; assay: microbe, parasite or virus in culture; assay type: cell-based; settings: TEM92639E, 18 h, read-out: Minimum Inhibitory Concentration
[14] = Acute oral toxicity test; settings: in vivo, ICR male mouse, 7 days
Experimental: To determine the acute oral toxicity of the compounds prepared in Examples 1 and 34, the test solution containing the compounds in various concentrations were orally administered to ICR male mouse in an amount of 10 ml per kg of body weight. For 7 days after administration, the lethality and the conditions of test mouse were observed, from which LD50 value (mg/kg), was calculated.

[15] = test system: Escherichia coli 10536; assay: In vitro antibacterial activity (MIC, agar dilution), Biological Example 1; assay type: cell-based; settings: 18 h; Escherichia coli 10536, Table 25; read-out: Minimum Inhibitory Concentration
[16] = test system: Klebsiella aerogenes 1082E; assay: as above; assay type: cell-based; settings: 18 h, Table 25, read-out: Minimum Inhibitory Concentration
[17] = test system: Micrococcus luteus 9341; assay: as above; assay type: cell-based; settings: 18 h; Micrococcus luteus 9341, Table 25; read-out: Minimum Inhibitory Concentration
[18] = test system: Pseudomonas aeruginosa 1912E; assay: as above; assay type: cell-based; settings: 18 h; Pseudomonas aeruginosa 1912E, Table 25; read-out: Minimum Inhibitory Concentration
[19] = test system: Staphylococcus aureus giorgio; assay: as above; assay type: cell-based; settings: 18 h, Table 25, read-out: Minimum Inhibitory Concentration
[20] = test system: Enterobacter cloacae P99; assay: microbe, parasite or virus in culture; assay type: cell-based; settings: P99, 18 h, read-out: Minimum Inhibitory Concentration
[21] = test system: Bacillus subtilis 6633; assay: In vitro antibacterial activity (MIC, agar dilution), Biological Example 1; assay type: cell-based; settings: 18 h; Bacillus subtilis 6633, Table 25; read-out: Minimum Inhibitory Concentration
[22] = test system: Salmonella typimurium 14028; assay: as above; assay type: cell-based; settings: 18 h; Salmonella typimurium 14028, Table 25; read-out: Minimum Inhibitory Concentration
[23] = test system: Escherichia coli TEM3 3455E; assay: microbe, parasite or virus in culture; assay type: cell-based; settings: TEM33455E, 18 h, read-out: Minimum Inhibitory Concentration
[24] = test system: Staphylococcus epidermidis 178; assay: In vitro antibacterial activity (MIC, agar dilution), Biological Example 1; assay type: cell-based; settings: 18 h; Staphylococcus epidermidis 178, Table 25; read-out: Minimum Inhibitory Concentration
[25] = test system: Staphylococcus aureus 77; assay: as above; assay type: cell-based; settings: 18 h; Staphylococcus aureus 77, Table 25; read-out: Minimum Inhibitory Concentration
[26] = test system: Escherichia coli 3190Y; assay: as above; assay type: cell-based; settings: 18 h, Table 25, read-out: Minimum Inhibitory Concentration
[27] = test system: Staphylococcus epidermidis 887E; assay: as above; assay type: cell-based; settings: 18 h, Table 25, read-out: Minimum Inhibitory Concentration
[28] = test system: Pseudomonas aeruginosa 10145; assay: as above; assay type: cell-based; settings: 18 h; Pseudomonas aeruginosa 10145, Table 25; read-out: Minimum Inhibitory Concentration
[29] = test system: Staphylococcus aureus 6538p; assay: as above; assay type: cell-based; settings: 18 h, Table 25, read-out: Minimum Inhibitory Concentration
[30] = test system: Klebsiella aerogenes 1976E; assay: as above; assay type: cell-based; settings: 18 h, Table 25, read-out: Minimum Inhibitory Concentration
[31] = test system: Citrobacter diversus 2046E; assay: as above; assay type: cell-based; settings: Citrobacter koseri, 18 h, Table 25, read-out: Minimum Inhibitory Concentration

Compound: O=C(O)c1cn(C2CC2)c2cc(N3CCNCC3)c(F)cc2c1=O [Ciprofloxacin, ciprofloxacin, reference compound]
- MIC [1]: 0.063 µg/mL (≈ 0.19 µM)
- MIC [2]: 4 µg/mL (≈ 12.1 µM)
- MIC ([3]; 18 h, Table 31, read-out: Minimum Inhibitory Concentration: MIC): 0.063 µg/mL (≈ 0.19 µM)
- Minimum Inhibitory Concentration: MIC ([3]; Table 32, ratio of weight): 0.063 µg/mL
- MIC [4]: 0.5 µg/mL
- MIC [5]: 1 µg/mL (≈ 3.02 µM)
- MIC [6]: 0.5 µg/mL

Compound: NCC1CN(c2c(F)cc3c(=O)c(C(=O)O)cn(C4CC4)c3c2Cl)CC1=NOCc1ccccc1 (centres unmarked) [Example 34, 7-(4-aminomethyl-3-benzyoxyimino-pyrrolidin-1-yl)-8-chloro-1-cyclopropyl-6-fluoro-1,4-dihydro-4-oxo-guinoline-3-carboxylic acid]
- MIC [7]: 4 µg/mL (≈ 8.02 µM)
- MIC [8]: 0.13 µg/mL (≈ 0.261 µM)
- MIC [9]: 0.5 µg/mL (≈ 1 µM)
- MIC [10]: 0.031 µg/mL (≈ 0.0621 µM)
- MIC [11]: 0.13 µg/mL (≈ 0.261 µM)
- MIC [12]: 0.25 µg/mL (≈ 0.501 µM)
- MIC [13]: 0.13 µg/mL (≈ 0.261 µM)
- LD50 at 168 h [14]: > 3000 mg/kg
- MIC [15]: 0.016 µg/mL (≈ 0.0321 µM)
- MIC [16]: 0.031 µg/mL (≈ 0.0621 µM)
- MIC [17]: 0.13 µg/mL (≈ 0.261 µM)
- MIC [18]: 0.5 µg/mL (≈ 1 µM)
- MIC [19]: ≤ 0.008 µg/mL
- MIC [20]: 0.063 µg/mL (≈ 0.126 µM)
- MIC [21]: ≤ 0.008 µg/mL
- MIC [22]: 0.063 µg/mL (≈ 0.126 µM)
- MIC [23]: 1 µg/mL (≈ 2 µM)
- MIC [24]: 2 µg/mL (≈ 4.01 µM)
- MIC [25]: ≤ 0.008 µg/mL
- MIC [26]: ≤ 0.008 µg/mL
- MIC [27]: ≤ 0.008 µg/mL
- MIC [28]: 2 µg/mL (≈ 4.01 µM)
- MIC [29]: ≤ 0.008 µg/mL
- MIC [30]: 0.5 µg/mL (≈ 1 µM)
- MIC [31]: 0.25 µg/mL (≈ 0.501 µM)
